# Where a name gives a salt, the structure may show the parent alone.
# Experiments:
# mice = conditions: i.v., Speigt and Avery, Drugs 3, 159-203 (1972), 10080 min; cited from earlier work
# [1] = system: serotonin spasm in the isolated uterus of rats; assay: Test b: serotonin antagonism in the isolated uterus of rats; assay type: cell-based, rats (Sprague-Dawley); conditions: isolated rat uterus; serotonin 10^-8 g/ml bath; 22° C.; read-out: ED50 (the source's name)
# Description: (§1) For determination of the serotonin-antagonistic activity the following pharmacological tests were used: Test a: (Test according to Konzett and Rossler (Arch. exp. Path. Pharmak. 195 (1940) 71). Domestic albino guinea pigs were anaesthetised with 1.25 g/kg of urethane intraperitoneally (i.p.). Bronchial resistance was recorded in the open thorax by a recorder ("bronchotransducer") manufactured by the firm Ugo Basile (Milan); respiratory frequency was kept constant by artificial respiration at a frequency of 58 strokes/minute, the inflation pressure was 9 cm H2 O column. To induce bronchospasms, 5 to […] of serotonin (as serotonin-creatinine sulphate) were injected into one of the jugular veins every 15 minutes in a volume of 0.1 ml/kg body weight. The test substances were administered in a volume of 1 ml/kg either intravenously within 30 seconds, 2 minutes before generation of the serotonin spasm or intraduodenally or orally by oesphageal tube 15 minutes before the spasm. […] The results are given in Table I. Test b: (Serotonin antagonism in the isolated uterus of rats according to Robert A. Turner: Screening Methods in Pharmacology, Academic Press 1965 (New York and London)) Female Sprague-Dawley rats with a weight of 180 to 240 g were given intraperitoneally 2 mg of Oestromon (Merck, Darmstadt) 24 hours before extraction of the uterus in order to induce oestrus. The organ bath was kept at 22° C. and contained a Tyrode solution having a specific composition. The test substance was added to the bath in aqueous solution with a total volume of 0.1 ml. The serotonin concentration administered was 10^-8 g/ml bath. The ED50 value corresponded to the dose by which a serotonin spasm is inhibited by 50%. Test c: (5-Hydroxy-L-tryptophan antagonism in mice). A single administration of 5-hydroxy-L-tryptophan causes in mice a strong increase in defecation due to the increased biosynthesis of serotonin from exogenically supplied amino acids. This defecation effect can be reduced by serotonin antagonists. The test substances were administered orally 45 minutes before administration of the tryptophan. The tryptophan dose was 40 mg/kg i.p.
# [2] = system: serotonin spasm (bronchospasm); assay: Test a: inhibition of serotonin-induced bronchospasm (Konzett and Rossler); assay type: in vivo; conditions: Cavia porcellus, guinea pigs
# Description: as §1
# rats = conditions: i.v., Speigt and Avery, Drugs 3, 159-203 (1972), 10080 min; cited from earlier work
# 5-Hydroxy-L-tryptophan = assay: Test c: 5-Hydroxy-L-tryptophan antagonism in mice (defecation); assay type: in vivo; conditions: 5-hydroxy-L-tryptophan 40 mg/kg i.p.
# Description: as §1
# Evaluation was carried out 1 hour after administration of the preparation by measurement of the quantity of faeces produced. A reduction in this quantity by not more than 25% of the control is indicated, according to the result, by 0 or (+), from 25 to 50% by +, from 50 to 75% by ++ and over 75% +++ (see Table I).
# serotonin = conditions: background statement; cited from earlier work
# [3] = pH value of aqueous solution; assay type: physicochemical; conditions: for pH value of a 0.1% aqueous solution: 0.1% solution
# Acute toxicity, rats = conditions: rat, in vivo, iv, mortality within 7 days
# From the text: (§2) Table III sets out for some compounds, the toxicity determined in mice and rats after intraperitoneal and intravenous administration over the mortality occurring within 7 days as LD50 or LD50 range.
# thrombocyte aggregation [4] = assay: Thrombocyte aggregation inhibiting activity (ADP-induced, platelet-rich plasma); assay type: cell-based, beagle dogs
# Description: Thrombocyte aggregation was induced experimentally in platelet-rich plasm (PRP) of beagle dogs by in vitro administration of adenosine diphosphate (ADP) in a final concentration of 2.5×10^-6 and was measured by means of a universal aggregometer (manufactured by B. Braun/Melsungen). An Eppendorf Photometer recorded the change in the optical density of the plasma.
# The following parameters were determined:
# 1. The angle, α, between the tangent at the starting point of the curve and the horizontal axis,
# 2. The time, Tr, from the start of rotation (aggregation) until complete disaggregation,
# 3. The maximum amplitude (Ma) of the aggregation curve as the difference between starting transmission and maximum transmission.
# Acute toxicity, mice = conditions: mouse, in vivo, mortality within 7 days
# From the text: as §2
# thrombocyte aggregation [5] = conditions: background statement; cited from earlier work
# [6] = 0.25 h, i.d. (intraduodenal), 15 minutes after administration
# [7] = iv, 2 min, i.v., 2 minutes after injection
# [8] = po, 0.25 h, p.o., 15 minutes after administration
# [9] = Canis lupus familiaris, final concentration 10^-4 g/ml, read-out: Change of Ma in %
# [10] = final concentration 3 × 10^-5 g/ml
SMILES,IC50 [1] [ng/mL],"ED50 [2, 6] [mg/kg]","ED50 [2, 7] [mg/kg]",Strength of activity (reduction in quantity of faeces) (5-Hydroxy-L-tryptophan; 20 mg/kg p.o.),inhibition at 100 µg/mL (thrombocyte aggregation [4]; [9]) [%],"Ma, maximum amplitude of the aggregation curve (thrombocyte aggregation [4]; final concentration 10^-4 g/ml)","Tr, time from start of rotation (aggregation) until complete disaggregation (thrombocyte aggregation [4]; final concentration 10^-4 g/ml) [min]",angle α between the tangent at the starting point of the curve and the horizontal axis (thrombocyte aggregation [4]; final concentration 10^-4 g/ml),"LD50 at 168 h (Acute toxicity, mice; iv) [mg/kg]",further results
"CN1CCC(=C2c3ccccc3CCc3sccc32)CC1 [Pizotyline-HCl, reference compound]",1 to 10,0.01 to 0.1,0.01 to 0.05,+ (from 25 to 50%),–,–,–,–,–,"LD50 (mice): 43 ± 1.8 mg/kg; ED50 [2, 8]: 0.5 to 1 mg/kg; LD50 (rats): 17 ± 1.1 mg/kg"
CC[C@@H](CO)NC(=O)[C@@H]1C=C2c3cccc4c3c(cn4C)C[C@H]2N(C)C1 [methysergide],–,–,–,–,–,–,–,–,–,serotonin antagonism (serotonin): serotonin-antagonistic activities
CN1C(=O)N(CCCN2CCN(c3ccccc3)CC2)C(=O)CC1(C)C [compound 26],–,–,–,–,–,–,–,–,–,pH value of a 0.1% aqueous solution [3]: around 3.0
CC1(C)CC(=O)N(CCCN2CCN(c3ccccc3)CC2)C(=O)N1 [compound 9],1 to 10,0.01 to 0.03,0.003 to 0.01,–,20,483,4.0,87.0,83,"LD50 at 168 h (Acute toxicity, rats; for the base): 60 mg/kg; ED50 [2, 8]: 0.1 to 0.3 mg/kg; inhibition at 30 µg/mL (thrombocyte aggregation [4]; Canis lupus familiaris, final concentration 3 × 10^-5 g/ml, read-out: Change of Ma in %): 13%; inhibition at 10 µg/mL (thrombocyte aggregation [4]; Canis lupus familiaris, final concentration 10^-5 g/ml, read-out: Change of Ma in %): 11%; Ma, maximum amplitude of the aggregation curve (thrombocyte aggregation [4]; [10]): 523; Tr, time from start of rotation (aggregation) until complete disaggregation (thrombocyte aggregation [4]; [10]): 4.3 min; angle α between the tangent at the starting point of the curve and the horizontal axis (thrombocyte aggregation [4]; [10]): 86.6; Ma, maximum amplitude of the aggregation curve (thrombocyte aggregation [4]; final concentration 10^-5 g/ml): 535; Tr, time from start of rotation (aggregation) until complete disaggregation (thrombocyte aggregation [4]; final concentration 10^-5 g/ml): 4.6 min; angle α between the tangent at the starting point of the curve and the horizontal axis (thrombocyte aggregation [4]; final concentration 10^-5 g/ml): 86.5; LD50 at 168 h (Acute toxicity, mice; ip, for the base): 100 to 300 mg/kg"
CC1(C)CC(=O)N(CCN2CCN(c3ccccc3)CC2)C(=S)N1 [compound 18],0.1 to 1,~0.03,0.001 to 0.003,++ (from 50 to 75%),19,328,3.0,85.8,100 to 150,"LD50 at 168 h (Acute toxicity, rats): 66 mg/kg; pH value of a 0.1% aqueous solution [3]: about 4.3; Strength of activity (reduction in quantity of faeces) (5-Hydroxy-L-tryptophan; 10 mg/kg p.o.): ++ (from 50 to 75%)"
CC1(C)CC(=O)N(CCN2CCN(c3ccccc3)CC2)C(=S)N1 [dihydrochloride hydrate],–,–,–,–,–,–,–,–,–,pH value of a 10% aqueous solution ([3]; 10% aqueous solution): around 1.8
CN(C)CCCOC1(Cc2ccccc2)CCCCCC1 [Bencyclane],–,–,–,–,–,–,–,–,–,serotonin antagonism (serotonin): weak serotonin antagonism; inhibition of thrombocyte aggregation (thrombocyte aggregation [5]): inhibiting thrombocyte aggregation
CC1NC(=O)N(CCCN2CCN(c3ccccc3)CC2)C(=O)C1C (stereo not shown) [compound 17],1 to 10,0.01 to 0.03,0.001 to 0.003,++ (from 50 to 75%),18,344,2.3,85.9,54,"LD50 at 168 h (Acute toxicity, rats): 25 to 40 mg/kg; Strength of activity (reduction in quantity of faeces) (5-Hydroxy-L-tryptophan; 10 mg/kg p.o.): + (from 25 to 50%)"
"CN(C)CCCOC1(Cc2ccccc2)CCCCCC1 [Fludilate, reference compound]",–,–,–,–,–,324,2.6,85.2,–,Change of Ma in % (thrombocyte aggregation [4]; final concentration 10^-4 g/ml): -34%
CC1(C)CC(=O)N(CCCN2CCN(c3ccc(F)cc3)CC2)C(=O)N1 [compound 11],–,–,0.01 to 0.03,–,–,–,–,–,–,"LD50 at 168 h (Acute toxicity, mice; ip): 100 to 300 mg/kg"
CN1CCC(=C2c3ccccc3CCc3sccc32)CC1 [Pizotyline],–,–,–,–,–,–,–,–,–,serotonin antagonism (serotonin): serotonin-antagonistic activities
CC1(C)CC(=O)N(CCCN2CCN(c3ccccc3)CC2)C(=S)N1 [compound 16],1 to 10,0.3,0.01 to 0.03,+ (from 25 to 50%),42,315,1.8,86.3,40 to 63,"ED50 [2, 8]: ~0.3 mg/kg; LD50 at 168 h (Acute toxicity, mice; ip): 200 to 400 mg/kg; Strength of activity (reduction in quantity of faeces) (5-Hydroxy-L-tryptophan; 10 mg/kg p.o.): + (from 25 to 50%)"
